Experimental data: ChEMBL document CHEMBL4130359, “Indazole-based ligands for estrogen-related receptor α as potential anti-diabetic agents” (Eur J Med Chem, 2017)
Active and inactive are the calls of the source. The calls are words filed in the database; no cut-off is given here.

Assays:
[1] = Cmax in CD-1 mouse at 20 mg/kg administered via oral gavage by LC-MS analysis; assay type: ADME, organism-based; design: dose 20 mg/kg, route oral; conditions: in vivo
[2] = AUC (0 to 24 hrs) in Zucker rat sub-chronic fa/fa prediabetic model at 1 mg/kg, po qd measured on day 1 post dose; assay type: ADME, organism-based; design: time < 24 hr, dose 1 mg/kg, route oral; conditions: in vivo
Rattus norvegicus [3] = experiment: Antidiabetic activity in Zucker rat sub-chronic fa/fa prediabetic model assessed as blood glucose AUC (0 to 120 min) at 3 mg/kg, po qd for 31 days measured on day 29 post dose by OGTT (reference value: 41471 +/- 2451 mg.min/dL); assay type: functional
Rattus norvegicus [4] = experiment: Effect on IGFBP4 gene expression in epididymal white adipose tissue of Zucker rat sub-chronic fa/fa prediabetic model at 10 mg/kg, po qd for 15 days by microarray analysis relative to control; assay type: functional
[5] = biological target: Peroxisome proliferator-activated receptor alpha (Homo sapiens, UniProt Q07869); experiment: Antagonist activity at recombinant GST-tagged human PPARalpha LBD assessed as inhibition of GW7647-induced fluorescein-labeled coactivator peptide recruitment preincubated with enzyme followed by coactivator addition by LanthaScreen TR-FRET assay
Rattus norvegicus [6] = experiment: Toxicity in Zucker rat sub-chronic fa/fa prediabetic model assessed as body weight at 50 mg/kg, po qd for 29 days measured on day 29 post last dose (reference value: 533 +/- 10 g); assay type: organism-based; conditions: in vivo, 696 h
Rattus norvegicus [7] = experiment: Toxicity in […] chronic ob/ob model assessed as serum triglyceride level at 3 mg/kg, po qd for 31 days measured on day 32 (reference value: 329 +/- 36 mg/dl); assay type: organism-based; conditions: in vivo, 744 h
Rattus norvegicus [8] = experiment: Toxicity in Zucker rat sub-chronic fa/fa prediabetic model assessed as serum ALT level at 1 mg/kg, po qd for 31 days measured on day 32 (reference value: 151 +/- 23 U/L); assay type: organism-based; conditions: in vivo, 744 h
[9] = Drug uptake in liver of Zucker rat sub-chronic fa/fa prediabetic model at 12.5 mg/kg, po qd for 11 days; assay type: ADME, organism-based; conditions: read-out: Drug uptake
Rattus norvegicus [10] = experiment: Effect on CHUK gene expression in epididymal white adipose tissue of Zucker rat sub-chronic fa/fa prediabetic model at 10 mg/kg, po qd for 15 days by microarray analysis relative to control; assay type: functional
Rattus norvegicus [11] = experiment: Toxicity in Zucker rat sub-chronic fa/fa prediabetic model assessed as serum creatinine level at 50 mg/kg, po qd for 31 days measured on day 32 (reference value: 0.71 +/- 0.07 mg/dl); assay type: organism-based; conditions: in vivo, 744 h
Rattus norvegicus [12] = experiment: Effect on SDHD gene expression in epididymal white adipose tissue of Zucker rat sub-chronic fa/fa prediabetic model at 10 mg/kg, po qd for 15 days by microarray analysis relative to control; assay type: functional
[13] = Volume of distribution at steady state in Sprague-Dawley rat at 2 mg/kg, iv by LC-MS analysis; assay type: ADME, organism-based; conditions: in vivo, read-out: Vdss
Rattus norvegicus [14] = experiment: Effect on NDUFV2 gene expression in epididymal white adipose tissue of Zucker rat sub-chronic fa/fa prediabetic model at 10 mg/kg, po qd for 15 days by microarray analysis relative to control; assay type: functional
Rattus norvegicus [15] = experiment: Toxicity in Zucker rat sub-chronic fa/fa prediabetic model assessed as liver weight at 1 mg/kg, po qd for 31 days measured on day 32 (reference value: 28 +/- 1.6 g); assay type: organism-based; conditions: in vivo, 744 h
[16] = AUC (0 to 24 hrs) in […] model at 50 mg/kg, po qd for 28 days measured on day 28 post last dose; assay type: ADME, organism-based; design: dose 50 mg/kg, time < 24 hr, route oral; conditions: in vivo
Rattus norvegicus [17] = experiment: Effect on MED24 gene expression in epididymal white adipose tissue of Zucker rat sub-chronic fa/fa prediabetic model at 10 mg/kg, po qd for 15 days by microarray analysis relative to control; assay type: functional
Rattus norvegicus [18] = experiment: Increase in IDH3A mRNA expression in epididymal white adipose tissue of Zucker rat sub-chronic fa/fa prediabetic model at 10 mg/kg, po qd for 15 days by RT-PCR method; assay type: functional, organism-based
Rattus norvegicus [19] = experiment: Effect on PCK1 gene expression in epididymal white adipose tissue of Zucker rat sub-chronic fa/fa prediabetic model at 10 mg/kg, po qd for 15 days by microarray analysis relative to control; assay type: functional
Rattus norvegicus [20] = experiment: Effect on DBT gene expression in epididymal white adipose tissue of Zucker rat sub-chronic fa/fa prediabetic model at 10 mg/kg, po qd for 15 days by microarray analysis relative to control; assay type: functional
Rattus norvegicus [21] = experiment: Toxicity in Zucker rat sub-chronic fa/fa prediabetic model assessed as serum ALT level at 10 mg/kg, po qd for 31 days measured on day 32 (reference value: 151 +/- 23 U/L); assay type: organism-based; conditions: in vivo, 744 h
[22] = Clearance in Sprague-Dawley rat at 2 mg/kg, iv by LC-MS analysis; assay type: ADME, organism-based; conditions: in vivo
Rattus norvegicus [23] = experiment: Effect on STAT3 gene expression in epididymal white adipose tissue of Zucker rat sub-chronic fa/fa prediabetic model at 10 mg/kg, po qd for 15 days by microarray analysis relative to control; assay type: functional
Rattus norvegicus [24] = experiment: Effect on NDUFV3 gene expression in epididymal white adipose tissue of Zucker rat sub-chronic fa/fa prediabetic model at 10 mg/kg, po qd for 15 days by microarray analysis relative to control; assay type: functional
Rattus norvegicus [25] = experiment: Toxicity in Zucker rat sub-chronic fa/fa prediabetic model assessed as brown adipose tissue weight at 1 mg/kg, po qd for 31 days measured on day 32 (reference value: 2.1 +/- 0.3 g); assay type: organism-based; conditions: in vivo, 744 h
Rattus norvegicus [26] = experiment: Effect on SYNJ2 gene expression in epididymal white adipose tissue of Zucker rat sub-chronic fa/fa prediabetic model at 10 mg/kg, po qd for 15 days by microarray analysis relative to control; assay type: functional
[27] = AUC (0 to 24 hrs) in […] model at 10 mg/kg, po qd measured on day 1 post dose; assay type: ADME, organism-based; design: dose 10 mg/kg, time < 24 hr, route oral; conditions: in vivo
Rattus norvegicus [28] = experiment: Toxicity in […] chronic ob/ob model assessed as body weight at 3 mg/kg, po qd for 28 days measured on day 28 post last dose (reference value: 47.3 +/- 1.06 g); assay type: organism-based; conditions: in vivo, 672 h
Rattus norvegicus [29] = experiment: Toxicity in Zucker rat sub-chronic fa/fa prediabetic model assessed as serum ALT level at 50 mg/kg, po qd for 31 days measured on day 32 (reference value: 151 +/- 23 U/L); assay type: organism-based; conditions: in vivo, 744 h
[30] = Drug uptake in heart of Zucker rat sub-chronic fa/fa prediabetic model at 12.5 mg/kg, po qd for 11 days; assay type: ADME, organism-based; conditions: read-out: Drug uptake
Rattus norvegicus [31] = experiment: Toxicity in Zucker rat sub-chronic fa/fa prediabetic model assessed as serum cholesterol level at 3 mg/kg, po qd for 31 days measured on day 32 (reference value: 295 +/- 91 mg/dl); assay type: organism-based; conditions: in vivo, 744 h
Rattus norvegicus [32] = experiment: Increase in PCK1 mRNA expression in epididymal white adipose tissue of Zucker rat sub-chronic fa/fa prediabetic model at 10 mg/kg, po qd for 15 days by RT-PCR method; assay type: functional, organism-based
Rattus norvegicus [33] = experiment: Toxicity in Zucker rat sub-chronic fa/fa prediabetic model assessed as triglyceride level per gram liver at 1 mg/kg, po qd for 31 days measured on day 32 (reference value: 163.4 +/- 8.3 mg); assay type: organism-based; conditions: in vivo, 744 h

Chain of Peroxisome proliferator-activated receptor alpha (Q07869 whole entry, the tested form may be a part): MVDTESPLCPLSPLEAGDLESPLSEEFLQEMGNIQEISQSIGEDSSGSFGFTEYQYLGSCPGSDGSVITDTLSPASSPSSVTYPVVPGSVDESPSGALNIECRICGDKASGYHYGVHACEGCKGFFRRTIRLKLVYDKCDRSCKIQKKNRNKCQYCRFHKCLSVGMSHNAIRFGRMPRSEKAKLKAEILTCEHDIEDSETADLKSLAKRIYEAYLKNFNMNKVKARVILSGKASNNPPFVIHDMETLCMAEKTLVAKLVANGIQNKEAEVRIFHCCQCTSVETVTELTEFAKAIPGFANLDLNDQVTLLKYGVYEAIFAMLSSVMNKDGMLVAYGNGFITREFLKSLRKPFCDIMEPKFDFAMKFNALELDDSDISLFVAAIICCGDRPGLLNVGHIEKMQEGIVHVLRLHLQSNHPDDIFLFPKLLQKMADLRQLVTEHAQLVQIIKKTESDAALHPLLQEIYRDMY

With CN1CC[C@@H](N2C(=O)S/C(=C\c3ccc4c(cnn4Cc4ccc(Cl)cc4C(F)(F)F)c3)C2=O)[C@H](F)C1 the Cmax [1] was 2000 ng/mL, the AUC(0-t) at 24 h [2] was 1760 ng·h/mL and the Activity (Rattus norvegicus [3]) was 26306 mg·min/dL. For the same compound, the “fold change (FC)” value (Rattus norvegicus [4]) was -1.825, the IC50 [5] was over 10 µM and the Activity (Rattus norvegicus [6]) was 557 g. For the same compound, the Activity (Rattus norvegicus [7]) was 223 mg/dL, the Activity (Rattus norvegicus [8]) was 159 U/L and the concentration at 264 h [9] was 12400 ng/g. The “fold change (FC)” value (Rattus norvegicus [10]) was 1.379, the Activity (Rattus norvegicus [11]) was 0.54 mg/dL and the “fold change (FC)” value (Rattus norvegicus [12]) was 1.275. For the same compound, the Vd [13] was 11.2 L/kg, the “fold change (FC)” value (Rattus norvegicus [14]) was 1.44 and the Activity (Rattus norvegicus [15]) was 21.9 g. The AUC at 24 h [16] was 31600 ng·h/mL, the “fold change (FC)” value (Rattus norvegicus [17]) was -1.216 and the Activity (Rattus norvegicus [18]) was “Active”. For the same compound, the “fold change (FC)” value (Rattus norvegicus [19]) was 1.391, the “fold change (FC)” value (Rattus norvegicus [20]) was -1.217 and the Activity (Rattus norvegicus [21]) was 122 U/L. For the same compound, the clearance [22] was 23 mL/min/kg, the “fold change (FC)” value (Rattus norvegicus [23]) was -1.405 and the “fold change (FC)” value (Rattus norvegicus [24]) was 1.257. For the same compound, the Activity (Rattus norvegicus [25]) was 3.7 g, the “fold change (FC)” value (Rattus norvegicus [26]) was -1.663 and the AUC(0-t) at 24 h [27] was 3940 ng·h/mL. The Activity (Rattus norvegicus [28]) was 43.5 g, the Activity (Rattus norvegicus [29]) was 104 U/L and the concentration at 264 h [30] was 1700 ng/g. The Activity (Rattus norvegicus [31]) was 179 mg/dL, the Activity (Rattus norvegicus [32]) was “Active” and the Activity (Rattus norvegicus [33]) was 122 mg.
